Data from article PMC11648681, “Development of machine learning models for the prediction of the skin sensitization potential of cosmetic compounds” (PeerJ, 2024).
Where “and” joins values, the source holds several entries; their conditions need not be identical. Equal values may be shown once. Read-outs that look alike come from different tables or passages of the source.

Assays:
[1] = CCK-8 cell viability of THP-1 cells after 48 h compound treatment in HaCaT/THP-1 co-culture; format: cell-based, human; conditions: human; for IC50 at 48 h: THP-1 cells, 48 h treatment, CCK-8, range 1,000 to 3.9 μg/mL, read-out: IC50 (cytotoxicity)
Protocol: (§1) The co-culture system was set up according to the following described method. […] THP-1 cells were collected, centrifuged, and re-suspended in fresh RPMI-1640 medium supplemented with 10% FBS at 2 × 10^6 cells/mL. Then cells are distributed into HaCaT-seeded 96 wells plate with 80 μL (1.6 × 10^5 cells/well).
(§2) The compounds listed in Table 1 were dissolved in DMSO to create stock solutions with a concentration of 500 mg/mL. Eleven concentrations were subsequently prepared using two-fold serial dilutions. These stock solutions were then further diluted 250-fold in RPMI-1640 + 10% FBS medium. Finally, 80 μL of the prepared solutions were added 1:1 to the treated 96-well plates and incubated for 48 h at 37 °C and 5% CO2.
(§3) After 48 h of treatment, the treated cells were collected 100 μL cells per well. The supernatant medium was added 10 μL of CCK-8 (Life-iLab, Shanghai, China) solution to each well and incubated the plate in the incubator for 2–4 h. THP-1 cell viability was determined using standard calculation methods.
(§4) The cytotoxicity of 15 test compounds listed in Table 1 was assessed using THP-1 cells across a concentration range of 1,000 to 3.9 μg/mL. Cell viability was assessed after 48 h of treatment using the CCK-8 assay.

THP-1 cells = experiment: as above; format: cell-based, human; conditions: 48 h
Protocol: as §1, §2, §3, §4

[2] = THP-1 cells in co-culture with HaCaT cells, 48 h, THP-1, individual replicate values
[3] = THP-1 cells in co-culture with HaCaT cells, 31.25 μg/mL, 48 h, THP-1, individual replicate values, read-out: Cell viability
[4] = 0.976563 μg/mL, THP-1, individual replicate values
[5] = 1.95312 μg/mL, THP-1, individual replicate values
[6] = 3.90625 μg/mL, THP-1, individual replicate values
[7] = 7.8125 μg/mL, THP-1, individual replicate values
[8] = 15.625 μg/mL, THP-1, individual replicate values
[9] = 31.25 μg/mL, THP-1, individual replicate values
[10] = 62.5 μg/mL, THP-1, individual replicate values
[11] = 125 μg/mL, THP-1, individual replicate values
[12] = 250 μg/mL, THP-1, individual replicate values
[13] = 500 μg/mL, THP-1, individual replicate values
[14] = 1000 μg/mL, THP-1, individual replicate values
[15] = THP-1 cells, CCK-8, single (not double) concentration
[16] = 48 h, THP-1, individual replicate values
[17] = THP-1 cells in co-culture with HaCaT cells

Row | Compound | viability at 48 h, 0.976563 μg/mL [1, 2] | viability at 48 h, 1.95312 μg/mL [1, 2] | viability at 48 h, 3.90625 μg/mL [1, 2] | viability at 48 h, 7.8125 μg/mL [1, 2] | viability at 48 h, 62.5 μg/mL [1, 2] | viability at 48 h, 125 μg/mL [1, 2] | viability at 48 h, 250 μg/mL [1, 2] | viability at 48 h, 500 μg/mL [1, 2] | viability at 48 h, 1000 μg/mL [1, 2] | Cell viability (THP-1 cells; [4]) | Cell viability (THP-1 cells; [5]) | Cell viability (THP-1 cells; [6]) | Cell viability (THP-1 cells; [7]) | Cell viability (THP-1 cells; [8]) | Cell viability (THP-1 cells; [10]) | Cell viability (THP-1 cells; [11]) | Cell viability (THP-1 cells; [12]) | Cell viability (THP-1 cells; [13]) | Cell viability (THP-1 cells; [14]) | viability at 48 h, 15.625 μg/mL [1, 2] | other results
1 | O=c1c(-c2ccccc2)c1-c1ccccc1 [diphenylcyclopropenone, Diphenylcyclopropenone] | 95.4% | 124% | 36.8% | 21.2% | 26.6% | 28.2% | 29.3% | 30.3% | 30.7% | 95.9291% | 135.468% | 42.1135% | 16.9362% | 18.4255% and 40.305% | 19.5248% | 23.4184% | 23.9858% | 31.4681% | 33.1277% |  | viability at 48 h, 31.25 μg/mL [1, 3]: 25.4%; Cell viability (THP-1 cells; [9]): 15.5674%; final concentration used (highest concentration that maintained at least 80% cell viability) (THP-1 cells; [15]): 0.98 µg/mL
2 | C=CCc1ccc(O)c(OC)c1 [eugenol, Eugenol] |  |  |  |  |  |  |  |  |  | 95.2766% | 82.8227% | 95.5106% | 87.9007% | 89.6454% | 83.0993% | 50.2837% | 13.5816% | 12.3688% | 8.652% and 19.4894% |  | viability at 48 h, 0.976563 μg/mL [1, 16]: 96.1%; viability at 48 h, 1.95312 μg/mL [1, 16]: 85.9%; viability at 48 h, 3.90625 μg/mL [1, 16]: 94%; viability at 48 h, 7.8125 μg/mL [1, 16]: 89.2%; viability at 48 h, 15.625 μg/mL [1, 16]: 84%; viability at 48 h, 62.5 μg/mL [1, 16]: 96.6%; viability at 48 h, 125 μg/mL [1, 16]: 54.7%; viability at 48 h, 250 μg/mL [1, 16]: 13.4%; viability at 48 h, 500 μg/mL [1, 16]: 19.5%; viability at 48 h, 31.25 μg/mL ([1]; Cell viability): 89.2%; final concentration used (highest concentration that maintained at least 80% cell viability) (THP-1 cells; human): 31.2 µg/mL; Cell viability (THP-1 cells; human, 31.25 μg/mL): 101.56%
3 | OCC(O)CO [glycerol, Glycerol] | 87.7% | 93.5% | 79.1% |  | 110% | 90.6% | 93.5% | 93.4% | 98.4% |  |  |  |  |  |  |  |  |  |  | 93.7% | viability at 48 h, 31.25 μg/mL ([1]; Cell viability): 105%; IC50 at 48 h [1, 17]: > 1000 µg/mL; Cell viability (THP-1 cells; human, 31.25 μg/mL): 116.476%
4 | O=CCc1ccccc1 [phenylacetaldehyde, Phenylacetaldehyde] | 84.7% | 85.6% | 84.7% | 80.6% | 15.8% | 17% | 19.5% | 21.5% | 18.6% |  | 84.3308% | 77.9774% | 74.6917% | 73.3083% | 15.5263% | 17.3609% | 19.4737% | 22.2782% | 20.8421% | 74.2% | viability at 48 h, 31.25 μg/mL [1, 3]: 14.8%; Cell viability (THP-1 cells; [9]): 14.7368%; final concentration used (highest concentration that maintained at least 80% cell viability) (THP-1 cells; [15]): 7.8 µg/mL
5 | Oc1cccc(O)c1 [resorcinol, Resorcinol] | 86.4% |  | 99.3% | 95.8% | 68% | 66.2% | 59.3% | 56.3% | 58.1% | 87.3677% | 103.314% and 82.4843% | 80.4798% | 98.5964% | 93.1569% | 79.0942% | 70.9013% | 60.5067% | 57.2511% | 56.1435% | 86.8% | viability at 48 h, 31.25 μg/mL ([1]; Cell viability): 81.4%; Cell viability (THP-1 cells; human, 31.25 μg/mL): 84.1435%
6 | CC(C)CCCC(C)CCCC(C)CCCCC(C)CCCC(C)CCCC(C)C (centres unmarked) [squalane, Squalane] |  |  | 85.4% | 85% | 87.1% | 98% | 83.7% | 82% | 91.2% | 122.038% | 117.419% | 88.2476% | 84.8% | 88.8667% |  | 94.8381% | 87.1048% | 84.4381% | 95.019% | 78.7% | viability at 48 h, 31.25 μg/mL [1, 3]: 89.3%; IC50 at 48 h [1, 17]: > 1000 µg/mL; Cell viability (THP-1 cells; [9]): 81.4095%
